This is an account of results in EP0643699B1, “6-(2-HYDROXYETHYLAMINOALKYL)-5,11-DIOXO-5,6-DIHYDRO-11H- INDENO[1,2-C]ISOQUINOLINES AND THEIR USE AS ANTINEOPLASTIC AGENTS” (priority 1991, dated 1993).

One test relates to Yoshida ascites cells. The test can be described thus: Cytotoxicity: incorporation of [3H]thymidine and [14C]uridine into trichloroacetic acid-insoluble fraction of cells. It counts as cell-based, Wistar rats. An excerpt: The degree of influence on the incorporation of [^3H]thymidine and [^14C]uridine into the fraction of Yoshida ascites cells insoluble in trichloroacetic acid serves as the measure of cytotoxicity.

The test system of another test is Sa37 sarcoma. The test can be described thus: Antitumour activity in S37 ascites sarcoma bearing mice (tumour weight, total ascitocrit, survival). It counts as in vivo, mice H. The note with it: for mean value of the tumour weight in comparison with the untreated control group / mean value of tumour cell fraction in ascites fluid (total ascitocrit) in comparison with the untreated control group: eight daily doses; for Survival time (T/C, %) / Total ascitocrit (T/C, %) / Tumour weight (T/C, %): administered in four days. An excerpt: (§1) The antineoplastic activity of the compounds of the invention has been investigated testing the compounds of the chemical group "in vivo" against experimental rodent tumors such as the solid form of Ehrlich tumour (STE, originally mammary adenocarcinoma), tumor HK (also transplantable originally mammary adenocarcinoma), Krebs' ascites tumour (Kr2), S37 ascites sarcoma, Nemeth-Keller lymphoma (NK), all maintained in mice H, Gardner lymphosarcoma (LsG, maintained in mice C3H), P388 and/or L1210 leukemia (maintained in DBA2 mice), B16 metastasizing melanocarcinoma (maintained in C57B1/6 mice) and Yoshida ascites reticulosarcoma (Y, maintained in Wistar rats) in experiments according to Jelinek, V. [Neoplasma 12, 469 (1965); ibid 7, 146 (1960)] and in "in vitro" experiments using radioactive precursors of nucleic acids and proteins according to Miko, M. et al. [Cancer Res 39, 4242 (1979); Neoplasma 26, 449 (1979); ibid 16, 161 (1969)] with minor modifications [Mattern, J.: Studies on the Drug Sensitivity of Short Term Cultured Tumour Cell Suspensions. In "Human Tumours in Short Term Culture" (Dendy, P.P. ed.), p.301, Academic Press 1976]. The Cox's proportional-hazards model was used for survival evaluation and optimal dose calculation according to Carter, V.H. et al. [cf Cancer Res. 42, 2963 (1982)].
Eighty female mice H weighing approximately 20 g were divided into four groups: one control group and three experimental groups of 20 animal each. A lethal dose of the Sa37 sarcoma ascitic fluid was implanted intraperitoneally to all the animals. The animals of test groups were treated using the compound suspended in water. The suspension contained the substance in such a concentration that dose 0.6, 0.4 and/or 0.2ml of the suspension p.o. was equal to dose 240, 160 and/or 80 mg/kg p.o., respectively. The drug was administered to the experimental animals once, a day after tumour transplantation. On the tenth day after the tumour transplantation, half of the animals in each group were killed by ether anaesthesia, ascites were emptied after laparotomia and the tumour weight was assessed in all animals from the weight difference before and after laparotomia and ascites removing. In ascites fluid the volume of tumour cell fraction was determined. The remaining animals were left to monitor the time of death and survival time was followed. […] It was also observed that the treated animals survived longer than untreated control animals. […] The results of the experiment are summarized in the following table: Antitumour activity of 6-[2-(2-hydroxyethyl)aminoethyl]5,11-dioxo-5,6-dihydro-11H-indeno[1,2-c]isoquinoline (the substance I, X=2) in S37 sarcoma bearing mice.
In an analogous experiment carried out on the animals with implanted Sa37 sarcoma the substance I (X=2) was administered in seven daily doses, and the substance I (X=3) in four days. The results of the experiment are summarized in the following table: Antitumour activity of 6-[2-(2-hydroxyethyl)aminoethyl]5,11-dioxo-5,6-dihydro-11H-indeno[1,2-c]isoquinoline (the substance I, X=2) and 6-[3-(2-hydroxyethyl)aminopropyl]5,11-dioxo-5,6-dihydro-11H-indeno[1,2-c]isoquinoline (the substance I, X=3) in S37 bearing mice.
In an experiment carried out on the animals with implanted Sa37 sarcoma the substance I (X=0) was administered in eight daily doses (analogously as in example 6).

For another test, the system named is Ehrlich tumour. As to the kind of experiment: Antitumour activity against solid form of Ehrlich tumour in mice (tumour weight, survival). It counts as in vivo, mice H.
From the text: as §1
Sixty female mice H weighing approximately 20 g were divided into three groups: one control group and two experimental groups of 20 animal each. A lethal dose of the 40 Ehrlich tumour homogenate was implanted subcutaneously to all the animals. The animals of test groups were treated using the compounds suspended in water. […] On the fourteenth day after the tumour transplantation, half of the animals in each group were killed by ether anaesthesia, tumours were removed and weighed. The remaining animals were left to monitor the time of death and survival time was followed. […] It was also observed that the treated animals survived longer than untreated control animals.

For another test, the system named is leukemia P388. As to the kind of experiment: Survival of mice with leukemia P388 after intravenous administration. To be noted: mice DBA2 with leukemia P388. The class given is in vivo.
From the text: as §1, with “(1982)]. […]” for “(1982)].”

pIC50: −log10 of the molar value. Where two headings read alike, the source gives them in different places. Marks after values point to notes of the source that are not given here.

In the case of `COc1cccc2c1C(=O)c1c(O)c3c(c(O)c1C2=O)C[C@@](O)(C(=O)CO)C[C@@H]3O[C@H]1C[C@H](N)[C@H](O)[C@H](C)O1` [DOXORUBICIN], the pIC50 is 4.80 in the test on Yoshida ascites cells (Rattus norvegicus, YOSHIDA, Precursor [6-3H]Thymidine) and 5.10 in the test with Yoshida ascites cells (Rattus norvegicus, YOSHIDA, Precursor [Uracil-U-14C]uridine).
Consider `O=C1c2ccccc2-c2c1c1ccccc1c(=O)n2NCCO` [I (X=0), 6-[(2-hydroxyethyl)amino]-5,11-dioxo-5,6-dihydro-11H-indeno[1,2-c]isoquinoline], for which, in the test with Sa37 sarcoma (20 mg/kg s.c.), the “mean value of the tumour weight in comparison with the untreated control group” value is reported as 68% and the “mean value of tumour cell fraction in ascites fluid (total ascitocrit) in comparison with the untreated control group” value is recorded as 71%. Besides, in the test with Sa37 sarcoma (50 mg/kg p.o.), the “mean value of the tumour weight in comparison with the untreated control group” value worked out at 60% and the “mean value of tumour cell fraction in ascites fluid (total ascitocrit) in comparison with the untreated control group” value worked out at 68%. In addition, in the test with Ehrlich tumour (50 mg/kg p.o. x 8, starting on the first day after tumour transplantation), the “mean tumour weight lowered by” value stood at 13%. Moreover, in the test on Ehrlich tumour (eight daily doses of 25 mg/kg p.o.), the “Mean survival time in comparison with the untreated control group” value was found to be 115%. For the same compound, the “mean tumour weight in the treated animals in comparison with the untreated control group” value in the test with Ehrlich tumour (single dose of 100 mg/kg p.o.) is 72%.
For the compound `Cl.O=C1c2ccccc2-c2c1c1ccccc1c(=O)n2CCNCCO` [I (X=2) Hydrochloride, 6-[2-(2-hydroxyethyl)aminoethyl]-5,11-dioxo-5,6-dihydro-11H-indeno[1,2-c]isoquinoline hydrochloride], the survival result in the test on leukemia P388 is listed as “highly significant increase of survival”. Moreover, the pIC50 was 5.30 in the test with Yoshida ascites cells (Rattus norvegicus, YOSHIDA, Precursor [6-3H]Thymidine, read-out: IC 50) and 5.15 in the test with Yoshida ascites cells (Rattus norvegicus, YOSHIDA, Precursor [Uracil-U-14C]uridine, read-out: IC 50).
For the compound `O=C1c2ccccc2-c2c1c1ccccc1c(=O)n2CCCNCCO` [I (X=3), 6-[3-(2-hydroxyethyl)aminopropyl]-5,11-dioxo-5,6-dihydro-11H-indeno[1,2-c]isoquinoline], the “Survival time (T/C, %)” value is reported as 119% in the test on Sa37 sarcoma (10 mg/kg p.o.); 99% in the test on Sa37 sarcoma (20 mg/kg p.o.); “tox” with Sa37 sarcoma (30 mg/kg p.o., tox - toxic dose). Also, the “Total ascitocrit (T/C, %)” value in the test on Sa37 sarcoma (10 mg/kg p.o.) is reported as 80^a) %; in the test on Sa37 sarcoma (20 mg/kg p.o.), 62^c) %; in the test with Sa37 sarcoma (30 mg/kg p.o.), 43^b) %. Besides, the “Tumour weight (T/C, %)” value in the test with Sa37 sarcoma (10 mg/kg p.o.) is 70^b) %; in the test on Sa37 sarcoma (20 mg/kg p.o.) it was 56^c) %; in the test with Sa37 sarcoma (30 mg/kg p.o.), 35^b) %.
For the compound MITOXANTRON, the pIC50 in the test with Yoshida ascites cells (Precursor [6-3H]Thymidine, read-out: IC 50) was 4.60; in the test with Yoshida ascites cells (Precursor [Uracil-U-14C]uridine, read-out: IC 50), 4.64.
